Experimental data taken from patent US6528528B2 (Warner-Lambert Company, priority 1997, dated 2003).

Experiments:
[1] = tested on: Rabbits fed a 0.25% cholesterol, 3% peanut oil, 3% coconut oil diet; test: In vivo tests: aortic atherosclerotic lesions in rabbits fed a cholesterol diet; details: 10 mg/kg as diet admix, 12 weeks
Procedure: The entire descending thoracic aorta was assayed for its cholesteryl ester (CE), free cholesterol phospholipid content. The lipids were extracted in chloroform:methanol (2:1) by the procedure of Folch, et al. (Folch J., Lees M., Sloane-Stanley G. H. A simple method for the isolation and purification of total lipids from animal tissue, J. Biol. Chem., 1957;226:497-509) and 300-500 μL of an internal standard, i.e., 200 mg/ml solution of 4-hydroxy-cholesterol in ethyl acetate:acetone (2:1), was added to the extracts of the thoracic aortic samples. After extraction, the organic phase was dried under nitrogen and redissolved in isooctane/tetrahydro-furan (97:3). The lipid content and composition of the thoracic aorta were measured using an HPLC method.
For histologic evaluation of the aortic arch lesions and for quantification of aortic arch cross-sectional lesion area, a 1 cm segment of the ascending aorta distal to the aortic valves was fixed in 10% neutral buffered formalin for 24 hours. The vessels were dehydrated, cleared in xylene, and infiltrated with molten paraffin (<60° C.) using a Tissue Tek VIP autoprocessor (Miles Scientific, Elkhart, Ind.). The tissue segments were embedded in paraffin and sectioned at 5 μm with a Reichert-Jung microtome (Baxter, McGraw Park, Ill.). In order to obtain a thorough representation of the histologic appearance of the aortic arch lesions, 3 ribbons of 20 sections each were cut. Each ribbon of sections was spaced approximately 100 μm apart. Three pairs of sections, i.e., 1 pair from each ribbon, were affixed to cleaned 3-aminopropyltriethoxy-silane coated glass slides and stored until stained. The general histologic character was evaluated in Verhoeff's elastica stained sections.
The gross extent of atherosclerosis within the aortic arch was measured. In addition, sections of the aortic arch, a site of hypercholesterolemia-induced lesions, stained using the Verhoeff's elastica procedure were used for quantification of lesion cross-sectional. The internal elastic lamina (IEL) was identified as a blue-black ring and images of that region were collected using a digital camera. The area within the IEL was quantified using the Image Pro Plus image analysis software. The area of the lumen of the aortic arch was also quantified in a similar fashion. Lesion area was defined as the difference between the area circumscribed by the internal elastic lamina and the lumen area.
Aortic arch lesion extent was also measured. The area distal to the 1 cm segment taken for histologic evaluation to the first intercostal ostia was removed from the animal, opened longitudinally and images of the surface of the vessel was collected using a digital camera. The lesions were identified as raised, opaque areas and their area was determined using the Image Pro Plus image analysis software. The area of the entire aortic arch was also determined. The percentage of aortic arch covered by atherosclerotic lesions was calculated.

[2] = molecular target: T1, rabbit reticulocyte 15-LO (Oryctolagus cuniculus, UniProt P12530); test: Rabbit Reticulocyte 15-LO Assay (h15LO); type: biochemical; details: for IC50: 2U rabbit reticulocyte 15-LO, 174 μM linoleic acid, 15 minutes at 4° C.
T1 construct: Fifteen-lipoxygenase was obtained from phenylhydrazine-treated rabbits and purified per the method of Rapoport; from tissue; host or cells: reticulocytes of phenylhydrazine-treated rabbits
T1 sequence (P12530 1-663): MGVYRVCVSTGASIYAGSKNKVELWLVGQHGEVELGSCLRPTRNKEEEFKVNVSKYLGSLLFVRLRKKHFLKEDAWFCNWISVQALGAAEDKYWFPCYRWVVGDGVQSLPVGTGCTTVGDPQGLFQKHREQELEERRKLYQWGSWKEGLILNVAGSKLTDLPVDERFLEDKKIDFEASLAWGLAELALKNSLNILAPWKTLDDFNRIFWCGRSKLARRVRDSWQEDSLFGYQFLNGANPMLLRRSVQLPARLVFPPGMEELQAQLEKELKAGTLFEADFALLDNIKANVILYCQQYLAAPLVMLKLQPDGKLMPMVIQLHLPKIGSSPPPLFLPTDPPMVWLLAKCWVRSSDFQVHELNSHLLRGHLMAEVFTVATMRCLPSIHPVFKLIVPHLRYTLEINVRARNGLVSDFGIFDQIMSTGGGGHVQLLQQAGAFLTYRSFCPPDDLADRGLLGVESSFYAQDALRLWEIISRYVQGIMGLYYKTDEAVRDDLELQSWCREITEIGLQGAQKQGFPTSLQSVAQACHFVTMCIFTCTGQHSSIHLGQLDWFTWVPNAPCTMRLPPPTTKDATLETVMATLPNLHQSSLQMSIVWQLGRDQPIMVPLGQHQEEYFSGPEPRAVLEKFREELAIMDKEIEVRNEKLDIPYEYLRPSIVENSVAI
Outline: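 Linoleic acid oxidation to 13-HPODE measured at 4° C. over 15 minutes, using 174 μM substrate and 2U enzyme purified from phenylhydrazine-treated rabbits in PBS/0.2% Na cholate. Product peak areas calibrated with authentic 13-HODE; inhibition expressed versus maximal reaction.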

monocytes = test: Monocyte Recruitment Assay (chemotaxis of monocytes); type: cell-based; details: Table 3; for EC50: Monocyte, read-out: Monocyte Recruitment Assay ED50
Procedure: Monocyte Recruitment Assay
The recruitment or chemotaxis of monocytes was assayed by methods well known to those skilled in the art. In particular, the method set forth in J. Clin. Invest., 1988;82:1853-1863, which is hereby incorporated by reference, was used.

## COc1ccc(C(=O)Nc2ccc(Cl)c(Cl)c2)cc1N [Example 4, 3-Amino-4-methoxy-N-(3,4-dichlorophenyl)-benzamide]
[1]
  Aortic Arch Cross-Sectional Lesion Area (% Δ from Control): −94 % Δ from Control
  Aortic Arch Lesion Extent (% Δ from Control): +20 % Δ from Control
  Aortic Cholesteryl Ester Content (% Δ from Control): −7 % Δ from Control
[2]; Table 1
  IC50: 10 nM
other
  melting point: 179 to 182 °C

## COc1ccc(C(=O)Nc2ccccc2)cc1NC(=S)Nc1ccc(C)cc1 [Example 69, 4-Methoxy-N-phenyl-3-(-3-p-tolyl-thioureido)-benzamide]
[2]; Table 2
  IC50: 32 nM
monocytes; @ 30 μM
  Monocyte Recruitment Assay % @ 30 μM: 13% @ 30 μM

## O=C(Nc1ccccc1)c1ccc(O)c(Nc2cc(Cl)cc(Cl)c2)c1 [Example 56, 4-Hydroxy-3-(3,5-dichloro-phenylamino)-N-phenyl-benzamide]
[2]; Table 2
  IC50: 18 nM
monocytes
  EC50: 2600 nM
other
  melting point: 160 to 162 °C

## COc1ccc(C(=O)Nc2ccc(Cl)c(Cl)c2)cc1NS(C)(=O)=O [Example 119, 3-Methanesulfonylamino-4-methoxy-N-(3,4-dichlorophenyl)-benzamide]
[1]
  Aortic Arch Cross-Sectional Lesion Area (% Δ from Control): −50 % Δ from Control
  Aortic Arch Lesion Extent (% Δ from Control): +46 % Δ from Control
  Aortic Cholesteryl Ester Content (% Δ from Control): +46 % Δ from Control
[2]; Table 2
  IC50: 90 nM
other
  melting point: 226 to 228 °C

## COc1ccc(C(=O)Nc2ccc(F)cc2)cc1NC(=S)Nc1cc(Cl)cc(Cl)c1 [Example 91, 3-[3-(3,5-Dichlorophenyl)-thioureido]-N-(4-fluorophenyl)-4-methoxy-benzamide]
[1]
  Aortic Arch Cross-Sectional Lesion Area (% Δ from Control): −11 % Δ from Control
  Aortic Arch Lesion Extent (% Δ from Control): −12 % Δ from Control
  Aortic Cholesteryl Ester Content (% Δ from Control): +50 % Δ from Control
[2]; Table 2
  IC50: 8 nM
other
  melting point: 175 to 178 °C

## COc1ccc(C(=O)Nc2ccc(F)cc2)cc1Nc1cccc(C(F)(F)F)c1 [Example 40, 3-(3-Trifluoromethyl-phenylamino)-4-methoxy-N-(4-fluorophenyl)-benzamide]
[1]
  Aortic Arch Cross-Sectional Lesion Area (% Δ from Control): −6 % Δ from Control
  Aortic Arch Lesion Extent (% Δ from Control): +35 % Δ from Control
  Aortic Cholesteryl Ester Content (% Δ from Control): +5 % Δ from Control
[2]; Table 2
  IC50: 17 nM
other
  melting point: 163 to 164 °C

## COc1ccc(C(=O)Nc2ccccc2)cc1Nc1cc(Cl)cc(Cl)c1 [Example 35, 3-(3,5-Dichloro-phenylamino)-4-methoxy-N-phenyl-benzamide]
[2]; Table 2
  IC50: 7 nM
monocytes
  EC50: 26300 nM

## COc1ccc(C(=O)Nc2ccccc2)cc1NC(=S)NC(=O)c1ccccc1 [Example 67, 4-Methoxy-N-phenyl-3-(3-benzoyl-thioureido)-benzamide]
[2]; Table 2
  IC50: 10000 nM
monocytes
  EC50: 24100 nM

## COc1ccc(C(=O)Nc2ccccc2)cc1NC(=S)Nc1ccc(C(=O)O)cc1 [Example 75, 4-[3-(2-Methoxy-5-phenylcarbamoyl-phenyl)-thioureido]-benzoic acid]
[1]
  Aortic Arch Cross-Sectional Lesion Area (% Δ from Control): −90 % Δ from Control
  Aortic Arch Lesion Extent (% Δ from Control): −49 % Δ from Control
  Aortic Cholesteryl Ester Content (% Δ from Control): −28 % Δ from Control
[2]; Table 2
  IC50: 104 nM
other
  melting point: 201 to 202 °C

## CCc1ccc(C(=O)Nc2ccccc2)cc1NC(=S)Nc1cccc(C(F)(F)F)c1 [Example 110, 4-Ethyl-N-phenyl-3-[3-(3-trifluoromethylphenyl)-thioureido]-benzamide]
[2]; Table 2
  IC50: 290 nM
other
  melting point: 166 to 167 °C

## COc1ccc(C(=O)Nc2ccccc2)cc1NCc1cc(Cl)cc(Cl)c1 [Example 51, 3-(3,5-Dichloro-benzylamino)-4-methoxy-N-phenyl-benzamide]
[2]; 0.25 h, Table 2, @ 10 μM, read-out: h15LO % @ 10 μM
  inhibition at 10 µM: 69%
monocytes
  EC50: 20000 nM

## COc1ccc(C(=O)Nc2ccccc2)cc1NC(=S)Nc1ccc(N(C)C)cc1 [Example 93, 3-[3-(4-Dimethylaminophenyl)-thioureido]-4-methoxy-N-phenyl-benzamide]
[2]; Table 2
  IC50: 82 nM
other
  melting point: 179 to 180 °C

## COc1ccc(C(=O)Nc2ccccc2)cc1NS(=O)(=O)c1ccc(F)cc1 [Example 125, 3-(4-Fluoro-benzenesulfonylamino)-4-methoxy-N-phenyl-benzamide]
[2]; Table 2
  IC50: 28 nM
other
  melting point: 209 to 211 °C

## COc1ccc(C(=O)Nc2ccccc2)cc1NS(=O)(=O)c1cccc2c(N(C)C)cccc12 [Example 143, 3-(5-Dimethylaminonaphthalene-1-sulfonylamino)-4-methoxy-N-phenyl-benzamide]
[2]; Table 2
  IC50: 25 nM
other
  melting point: 231 to 232 °C

## O=C(Nc1ccccc1)c1ccc(F)c(NC(=S)Nc2cc(Cl)cc(Cl)c2)c1 [Example 96, 3-[3-(3,5-Dichlorophenyl)-thioureido]-4-fluoro-N-phenyl-benzamide]
[2]; Table 2
  IC50: 46 nM
other
  melting point: 173 to 175 °C

## COc1ccc(C(=O)Nc2ccccc2)cc1NC(=S)Nc1ccccc1C [Example 98, 4-Methoxy-N-phenyl-3-(3-o-tolyl-thioureido)-benzamide]
[2]; Table 2
  IC50: 1000 nM
other
  melting point: 172 to 174 °C

## COc1ccc(C(=O)Nc2ccccc2)cc1NS(=O)(=O)c1cccc2cccnc12 [Example 130, 3-(Quinoline-8-sulfonylamino)-4-methoxy-N-phenyl-benzamide]
[2]; Table 2
  IC50: 402 nM
other
  melting point: 187 to 188 °C

## O=C(Nc1ccc(F)cc1)c1ccc(OC(F)(F)F)c(NC(=S)Nc2cccc(C(F)(F)F)c2)c1 [Example 164]
[2]; Table 2
  IC50: 1590 nM
other
  melting point: 153 to 154 °C

## CCS(=O)(=O)Nc1cc(C(=O)Nc2ccccc2)ccc1OC [Example 134, 3-Ethanesulfonylamino-4-methoxy-N-phenyl-benzamide]
[2]; Table 2
  IC50: 137 nM
other
  melting point: 175 to 177 °C

## COc1ccc(C(=O)Nc2ccccc2)cc1NS(=O)(=O)c1cccs1 [Example 142, 3-(Thiophene-2-sulfonylamino)-4-methoxy-N-phenyl-benzamide]
[2]; Table 2
  IC50: 12 nM
other
  melting point: 180 to 183 °C

## COc1ccc(C(=O)Nc2ccc(Cl)cc2)cc1N [Example 2, 3-Amino-4-methoxy-N-(4-chlorophenyl)-benzamide]
[2]; Table 1
  IC50: 290 nM
other
  melting point: 191 to 192 °C

## COc1ccc(C(=O)Nc2ccccc2)cc1NC(=S)Nc1ccc(Cl)c(Cl)c1 [Example 85, 3-[3-(3,4-Dichlorophenyl)-thioureido]-4-methoxy-N-phenyl-benzamide]
[2]; Table 2
  IC50: 20 nM
other
  melting point: 174 to 175 °C

## COc1ccc(NC(=O)c2ccc(OC)c(NC(=S)Nc3cc(Cl)cc(Cl)c3)c2)cc1 [Example 79, 3-[3-(3,5-Dichlorophenyl)-thioureido]-4-methoxy-N-(4-methoxy-phenyl)-benzamide]
[2]; Table 2
  IC50: 127 nM
other
  melting point: 175 to 182 °C
